Assay results reported in PubChem BioAssay (NCI).
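The compound was tested at five concentrations on cells cultured in 96-well plates, with a 48-hour exposure period. GI50 marks 50% less growth. The concentration for full growth arrest is given as TGI.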

Key:
Assay in all cases: NCI anticancer screen, dose series, 48 h
OVCAR-3 ovarian = system: OVCAR-3 ovarian
UACC-62 melanoma = system: UACC-62 melanoma
IGROV1 ovarian = system: IGROV1 ovarian
786-0 renal = system: 786-0 renal
EKVX NSCLC = system: EKVX NSCLC
SNB-19 CNS = system: SNB-19 CNS
M14 melanoma = system: M14 melanoma
RXF 393 renal = system: RXF 393 renal
NCI-H226 lung = system: NCI-H226 lung
PC-3 prostate = system: PC-3 prostate

| SMILES | TGI (OVCAR-3 ovarian) [µM] | TGI (UACC-62 melanoma) [µM] | TGI (IGROV1 ovarian) [µM] | TGI (786-0 renal) [µM] | TGI (EKVX NSCLC) [µM] | TGI (SNB-19 CNS) [µM] | TGI (M14 melanoma) [µM] | TGI (RXF 393 renal) [µM] | TGI (NCI-H226 lung) [µM] | TGI (PC-3 prostate) [µM] | GI50 (RXF 393 renal) [µM] | GI50 (OVCAR-3 ovarian) [µM] | GI50 (PC-3 prostate) [µM] | GI50 (UACC-62 melanoma) [µM] | GI50 (IGROV1 ovarian) [µM] | GI50 (EKVX NSCLC) [µM] | GI50 (NCI-H226 lung) [µM] | GI50 (SNB-19 CNS) [µM] | GI50 (M14 melanoma) [µM] |
| --- | --- | --- | --- | --- | --- | --- | --- | --- | --- | --- | --- | --- | --- | --- | --- | --- | --- | --- | --- |
| N.N.N.O=[N+]([O-])[O-].O=[N+]([O-])[O-].O=[N+]([O-])[O-].O=[N+]([O-])[O-].[Co+3] | > 100 | > 100 | > 100 | > 100 | > 100 | > 100 | > 100 | – | – | – | – | – | – | – | – | – | – | – | – |
| C=C(C(=O)C(=O)Oc1ccc(Cl)cc1)C(=O)c1ccc(C)cc1 | > 100 | > 100 | > 100 | – | > 100 | > 100 | 81.8 | 79.3 | > 100 | – | – | – | – | – | – | – | – | – | – |
| Cc1c(F)c(N)c2c(=O)cc(-c3ccc(NC(=O)CN(C)C)c(F)c3)oc2c1F | > 60.9 | > 94.2 | > 100 | > 100 | – | > 100 | > 100 | > 100 | > 100 | > 100 | – | – | – | – | – | – | – | – | – |
| CC1=C(O)C(=O)[C@@H]2O[C@@H]2C1=O | 17.4 | 21.7 | 48.4 | – | 33.9 | 115 | – | 7.88 | 37 | – | – | – | – | – | – | – | – | – | – |
| Cc1nnc(Nc2ccccc2)o1 | > 100 | > 100 | – | > 100 | > 100 | > 100 | > 100 | > 100 | > 100 | > 100 | – | – | – | – | – | – | – | – | – |
| O=C(O)c1c2c(cc3c1CC1(Cc4ccccc4C1)C3)CCC2 | > 100 | > 100 | > 100 | > 100 | > 100 | – | – | > 100 | > 100 | > 100 | – | – | – | – | – | – | – | – | – |
| COc1ccc(-n2c(=O)c3[nH]cnc3n(-c3ccc(OC)cc3)c2=S)cc1 | > 100 | > 100 | > 100 | > 100 | > 100 | – | > 100 | > 100 | > 100 | > 100 | – | – | – | – | – | – | – | – | – |
| CCCc1cc(=O)c2c(C)c3[nH]c4ccc(Cl)cc4c3c(C)c2[nH]1 | – | – | 4.7 | 3.08 | 7.72 | 8.9 | 9.52 | 3.86 | 12.8 | 14.7 | – | – | – | – | – | – | – | – | – |
| CC(C)OP(=O)(OC(C)C)c1c(Nc2ccccc2)n[nH]c1N | > 100 | > 100 | > 100 | – | > 100 | > 100 | > 100 | > 100 | > 100 | > 100 | – | – | – | – | – | – | – | – | – |
| Cc1nc2c(sc(=S)n2-c2ccccc2)c2nc3ncccc3n12 | > 100 | > 100 | > 100 | > 100 | > 100 | > 100 | > 100 | > 100 | – | > 100 | – | – | – | – | – | – | – | – | – |
| C#CCCCCC#Cc1ccccc1C(=O)OC | > 100 | 94.7 | > 100 | – | > 100 | > 100 | > 100 | 95.1 | > 100 | – | – | – | – | – | – | – | – | – | – |
| COc1ccc2[nH]c(O)c(/C=c3/cc4c(c(-c5cc(OC)c(OC)c(OC)c5)n3)=Nc3ccccc3-4)c2c1 | > 100 | > 100 | > 100 | – | > 100 | > 100 | > 100 | 41.9 | > 100 | > 100 | 2.41 | 8.48 | 5.47 | 13.6 | > 100 | > 100 | > 100 | 26 | 6.32 |
| COc1ccc(C(C#N)NNC(=O)c2ccccc2O)cc1OC (stereo unspecified) | > 100 | 0.908 | > 100 | > 100 | – | – | 46.7 | 36.4 | 22.4 | – | – | – | – | – | – | – | – | – | – |
| CC(C)(C)c1ccc2c(c1)CNCCNCc1cc(C(C)(C)C)ccc1OCC1(CO2)COc2ccc(C(C)(C)C)cc2CNCCNCc2cc(C(C)(C)C)ccc2OC1 | 3.12 | 2.76 | 2.5 | 0.388 | 2.42 | 2 | 1.45 | – | 2.26 | 2.93 | – | – | – | – | – | – | – | – | – |
| Cc1ccc([C@@H]2[C@@H](C(=O)c3ccccn3)[C@H](c3ccc(C)cc3)C[C@](O)(c3ccccn3)[C@H]2C(=O)c2ccccn2)cc1 | > 64.4 | 35.2 | > 100 | 9.15 | – | > 64.3 | 3.01 | > 100 | > 100 | > 100 | – | – | – | – | – | – | – | – | – |
| O=C(NNC(=S)Nc1ccc(Cl)cc1)c1cc(-c2ccccc2)nc2ccccc12 | 8.91 | 12.6 | 26.7 | 17.6 | – | 21.7 | 18.7 | 21.9 | 28.9 | 15.1 | – | – | – | – | – | – | – | – | – |
| O=c1[nH]n2c(=O)cc[nH]c2c1-c1nnns1 | > 100 | – | > 100 | > 100 | > 100 | > 100 | > 100 | > 100 | > 100 | – | – | – | – | – | – | – | – | – | – |
